Test results from ChEMBL document CHEMBL6109104, “Synthesis and antibacterial evaluations of novel vancomycin analogues targeting bacteria membrane to combat Gram-negative infections” (Eur J Med Chem, 2025).
Converted amounts (≈) assume the structure as drawn. The source made the active and inactive calls. The calls are words filed in the database; no cut-off is given here.

Legend:
[1] = tested on: Staphylococcus aureus; assay: Antibacterial activity against methicillin-resistant Staphylococcus aureus USA300 incubated for 16 to 18 hrs by muller hinton broth based microplate reader analysis; assay type: functional; details: time 16-18 hrs
[2] = tested on: Staphylococcus aureus; assay: Antibacterial activity vancomycin-intermediate resistant Staphylococcus aureus incubated for 16 to 18 hrs by muller hinton broth based microplate reader analysis; assay type: functional; details: time 16-18 hrs
[3] = tested on: Acinetobacter baumannii; assay: Antibacterial activity against Acinetobacter baumannii ATCC17978 incubated for 16 to 18 hrs by muller hinton broth based microplate reader analysis; assay type: functional; details: time 16-18 hrs
[4] = tested on: Acinetobacter baumannii; assay: Antibacterial activity against Acinetobacter baumannii ATCC19606 incubated for 16 to 18 hrs by muller hinton broth based microplate reader analysis; assay type: functional; details: time 16-18 hrs
[5] = tested on: Acinetobacter baumannii; assay: Antibacterial activity against Acinetobacter baumannii ATCC17978 assessed as bactericidal rate by measuring bacterial count at 8 times MIC incubated for 4 hrs by muller-hinton agar based time-kill kinetics assay; assay type: functional, organism-based
[6] = tested on: Acinetobacter baumannii; assay: Antibacterial activity against Acinetobacter baumannii ATCC17978 infected in neutropenic thigh infection Kunming mouse model assessed as reduction in bacterial survival at 10 mg/kg, sc pretreated with bacteria for 2 hrs followed by compound addition and measured after 16 hrs; assay type: functional, organism-based
[7] = Toxicity in Kunming mouse infected with Acinetobacter baumannii ATCC17978 assessed as changed in body weight at 10 to 20 mg/kg; assay type: organism-based; details: in vivo, dose 10-20 mg/kg
[8] = tested on: Escherichia coli; assay: Antibacterial activity against Escherichia coli ATCC25922 incubated for 16 to 18 hrs by muller hinton broth based microplate reader analysis; assay type: functional; details: time 16-18 hrs
[9] = tested on: Escherichia coli; assay: Antibacterial activity against Escherichia coli ATCC35150 incubated for 16 to 18 hrs by muller hinton broth based microplate reader analysis; assay type: functional; details: time 16-18 hrs
[10] = tested on: HEK-293T; assay: Cytotoxicity against HEK293T cells at 64 ug/ml incubated for 72 hrs by MTT assay; assay type: toxicity, cell-based; details: human, dose 64 µg/ml
[11] = Hemolytic activity in sheep RBC at 64 ug/ml incubated for 1 hrs by absorbance based analysis; assay type: toxicity, cell-based, Ovis aries; details: erythrocyte, dose 64 µg/ml
[12] = tested on: Acinetobacter baumannii; assay: Antibacterial activity against Acinetobacter baumannii ATCC17978 assessed as bactericidal rate by measuring bacterial count at 4 times MIC incubated for 4 hrs by muller-hinton agar based time-kill kinetics assay relative to control; assay type: functional
[13] = tested on: Acinetobacter baumannii; assay: Antibacterial activity against Acinetobacter baumannii ATCC17978 assessed as bactericidal rate by measuring bacterial count incubated for 6 hrs by muller-hinton agar based time-kill kinetics assay; assay type: functional, organism-based
[14] = tested on: Cell membrane; assay: Induction of cytoplasmic membrane permeabilization in Acinetobacter baumannii ATCC17978 assessed as increase in fluorescence intensity at 16 times MIC incubated for 10 mins by SYTOX green assay
[15] = tested on: Cell membrane; assay: Induction of cell membrane disruption in Acinetobacter baumannii ATCC17978 assessed as increase in ROS level incubated for 30 mins by DCFH-DA probe based microplate reader analysis
[16] = tested on: Cell membrane; assay: Disruption of cell membrane in Acinetobacter baumannii ATCC17978 assessed as increase in DNA leakage incubated for 4 hrs by microspectrophotometer analysis
[17] = tested on: Cell membrane; assay: Disruption of cell membrane in Acinetobacter baumannii ATCC17978 assessed as increase in protein leakage incubated for 4 hrs by BCA assay
[18] = tested on: Acinetobacter baumannii; assay: Antibacterial activity against Acinetobacter baumannii ATCC17978 infected in neutropenic thigh infection Kunming mouse model assessed as reduction in bacterial load in thigh at 10 to 20 mg/kg, sc pretreated with bacteria for 2 hrs followed by compound addition and measured after 16 hrs; assay type: functional, organism-based; details: dose 10-20 mg/kg
[19] = tested on: Acinetobacter baumannii; assay: Antibacterial activity against Acinetobacter baumannii ATCC17978 incubated for 12 hrs and measured after 20 passages; assay type: functional, organism-based
[20] = tested on: HEK-293T; assay: Cytotoxicity against HEK293T cells at 0.5 uM incubated for 72 hrs by MTT assay relative to control; assay type: toxicity, cell-based; details: human
[21] = tested on: HEK-293T; assay: Cytotoxicity against HEK293T cells at 1.0 uM incubated for 72 hrs by MTT assay relative to control; assay type: toxicity, cell-based; details: human
[22] = tested on: Acinetobacter baumannii; assay: Antibacterial activity against Acinetobacter baumannii ATCC17978 infected in neutropenic thigh infection Kunming mouse model assessed as reduction in bacterial load in thigh at 20 mg/kg, sc pretreated with bacteria for 2 hrs followed by compound addition and measured after 16 hrs; assay type: functional, organism-based

| SMILES | MIC [1] | MIC [2] | MIC [3] | MIC [4] | MIC [8] | MIC [9] | other results |
| --- | --- | --- | --- | --- | --- | --- | --- |
| O=C(O)c1cn(C2CC2)c2cc(N3CCNCC3)c(F)cc2c1=O [CIPROFLOXACIN] | 0.25 µg/mL (≈ 0.754 µM) | 1 µg/mL (≈ 3.02 µM) | 0.5 µg/mL (≈ 1.51 µM) | 1 µg/mL (≈ 3.02 µM) | – | – | Activity [5]: Active; Activity [6]: Active |
| CCCCCCCCCCCC[N+]1(C)CCN(C(=O)[C@H]2NC(=O)[C@H]3NC(=O)[C@H](NC(=O)[C@@H]4NC(=O)[C@H](CC(N)=O)NC(=O)[C@H](NC(=O)[C@@H](CC(C)C)NC)[C@H](O)c5ccc(c(Cl)c5)Oc5cc4cc(c5O[C@@H]4O[C@H](CO)[C@@H](O)[C@H](O)[C@H]4O[C@H]4C[C@](C)(N)[C@H](O)[C@H](C)O4)Oc4ccc(cc4Cl)[C@H]3O)c3ccc(O)c(c3)-c3c(O)cc(O)cc32)CC1.[Br-] (stereo in doubt) | 1 µg/mL | 8 µg/mL | 8 µg/mL | 16 µg/mL | 16 µg/mL | 16 µg/mL | Activity [7]: Non-toxic; Activity [10]: Non-toxic; Activity [11]: Toxic; Activity [12]: 100%; Activity [5]: inactive; Activity [13]: Dose-dependent-effect; Activity [14]: Active; Activity [15]: Active; Activity [16]: Dose-dependent-effect; Activity [17]: Dose-dependent-effect; Activity [18]: Active; Activity [19]: Active |
| COc1cccc2c1C(=O)c1c(O)c3c(c(O)c1C2=O)C[C@@](O)(C(=O)CO)C[C@@H]3O[C@H]1C[C@H](N)[C@H](O)[C@H](C)O1 [DOXORUBICIN] | – | – | – | – | – | – | Activity [20]: 27.3%; Activity [21]: 85.6% |
| CN[C@H](CC(C)C)C(=O)N[C@H]1C(=O)N[C@@H](CC(N)=O)C(=O)N[C@H]2C(=O)N[C@H]3C(=O)N[C@H](C(=O)N[C@H](C(=O)O)c4cc(O)cc(O)c4-c4cc3ccc4O)[C@H](O)c3ccc(c(Cl)c3)Oc3cc2cc(c3O[C@@H]2O[C@H](CO)[C@@H](O)[C@H](O)[C@H]2O[C@H]2C[C@](C)(N)[C@H](O)[C@H](C)O2)Oc2ccc(cc2Cl)[C@H]1O [VANCOMYCIN] | – | – | > 128 µg/mL | > 128 µg/mL | > 128 µg/mL | > 128 µg/mL | Activity [22]: inactive |
| CN[C@H](CC(C)C)C(=O)N[C@H]1C(=O)N[C@@H](CC(N)=O)C(=O)N[C@H]2C(=O)N[C@H]3C(=O)N[C@H](C(=O)N[C@H](C(=O)O)c4cc(O)cc(O)c4-c4cc3ccc4O)[C@H](O)c3ccc(c(Cl)c3)Oc3cc2cc(c3O[C@@H]2O[C@H](CO)[C@@H](O)[C@H](O)[C@H]2O[C@H]2C[C@](C)(NC(=O)CCCCCCCCCCC[n+]3cccc(O)c3)[C@H](O)[C@H](C)O2)Oc2ccc(cc2Cl)[C@H]1O.[Br-] | 8 µg/mL | 64 µg/mL | > 128 µg/mL | > 128 µg/mL | > 128 µg/mL | > 128 µg/mL | – |
| CN[C@H](CC(C)C)C(=O)N[C@H]1C(=O)N[C@@H](CC(N)=O)C(=O)N[C@H]2C(=O)N[C@H]3C(=O)N[C@H](C(=O)N[C@H](C(=O)O)c4cc(O)cc(O)c4-c4cc3ccc4O)[C@H](O)c3ccc(c(Cl)c3)Oc3cc2cc(c3O[C@@H]2O[C@H](CO)[C@@H](O)[C@H](O)[C@H]2O[C@H]2C[C@](C)(NC(=O)CCCCCCCCCCC[n+]3ccc(N)cc3)[C@H](O)[C@H](C)O2)Oc2ccc(cc2Cl)[C@H]1O.O=C(O)C(F)(F)F.[Br-] | 1 µg/mL | 32 µg/mL | > 128 µg/mL | > 128 µg/mL | > 128 µg/mL | > 128 µg/mL | – |
| CCCCCCCCCC[N+]1(C)CCN(C(=O)c2ccc(CN[C@@]3(C)C[C@H](O[C@H]4[C@H](Oc5c6cc7cc5Oc5ccc(cc5Cl)[C@@H](O)[C@@H](NC(=O)[C@@H](CC(C)C)NC)C(=O)N[C@@H](CC(N)=O)C(=O)N[C@H]7C(=O)N[C@H]5C(=O)N[C@H](C(=O)N[C@H](C(=O)O)c7cc(O)cc(O)c7-c7cc5ccc7O)[C@H](O)c5ccc(c(Cl)c5)O6)O[C@H](CO)[C@@H](O)[C@@H]4O)O[C@@H](C)[C@H]3O)cc2)CC1.[Br-] | 1 µg/mL | 64 µg/mL | > 128 µg/mL | 64 µg/mL | 64 µg/mL | 64 µg/mL | – |
